In US9255132B2, “Angiopoietin derived peptides” (Compugen Ltd., priority 2008, dated 2016):
Residues, ends and D or L forms follow the SMILES beside them.

Biological target: T1, recombinant human Tie-2/Fc chimera (Homo sapiens, UniProt Q02763)
T1 construct: purchased R&D Systems 313-TI
Assay: BIACORE (SPR) direct binding of peptides to immobilized Tie2
Settings: 10-50 μM peptide
From the text: The capability of CGEN-G6 [SEQ ID NO: 6], CGEN-F9 [SEQ ID NO: 7], CGEN-C6 [SEQ ID NO: 9], CGEN-A11 [SEQ ID NO: 10], and CGEN-G2 [SEQ ID NO: 11] to specifically bind to recombinant Tie2 and interfere with the binding of Ang1, Ang2, or Ang4 to Tie2 was investigated using the BIACORE technology, measuring protein-protein interaction and binding affinity (Wendler et al 2005, Anal Bioanal Chem, 381: 1056-1064). The technology is based on surface plasmon resonance (SPR), an optical phenomenon that enables detection of unlabeled interactants in real time. […]
Peptide-protein interaction was analyzed using surface plasmon resonance. […] Solutions containing 10-50 μM of CGEN-G6 [SEQ ID NO: 6], CGEN-F9 [SEQ ID NO: 7], CGEN-C6 [SEQ ID NO: 9], CGEN-A11 [SEQ ID NO: 10], and CGEN-G2 [SEQ ID NO: 11] were injected into the sample chamber of the BIACORE device at a rate of 20 μl/min and the interaction was monitored using surface plasmon resonance. In addition, solutions containing 100-500 nM of Ang1, Ang2, and Ang4 proteins were injected alone or in combination with 10-50 μM of CGEN-G6 [SEQ ID NO: 6], CGEN-F9 [SEQ ID NO: 7], CGEN-C6 [SEQ ID NO: 9], CGEN-A11 [SEQ ID NO: 10], and CGEN-G2 [SEQ ID NO: 11] peptides at a constant ratio of 1:100 (Ang ligand to peptide) into the sample chamber of the BIACORE device at a rate of 20 μl/min and the interaction was monitored using surface plasmon resonance. […]

T1 sequence (Q02763 with tags, fused parts or gaps limits assumed): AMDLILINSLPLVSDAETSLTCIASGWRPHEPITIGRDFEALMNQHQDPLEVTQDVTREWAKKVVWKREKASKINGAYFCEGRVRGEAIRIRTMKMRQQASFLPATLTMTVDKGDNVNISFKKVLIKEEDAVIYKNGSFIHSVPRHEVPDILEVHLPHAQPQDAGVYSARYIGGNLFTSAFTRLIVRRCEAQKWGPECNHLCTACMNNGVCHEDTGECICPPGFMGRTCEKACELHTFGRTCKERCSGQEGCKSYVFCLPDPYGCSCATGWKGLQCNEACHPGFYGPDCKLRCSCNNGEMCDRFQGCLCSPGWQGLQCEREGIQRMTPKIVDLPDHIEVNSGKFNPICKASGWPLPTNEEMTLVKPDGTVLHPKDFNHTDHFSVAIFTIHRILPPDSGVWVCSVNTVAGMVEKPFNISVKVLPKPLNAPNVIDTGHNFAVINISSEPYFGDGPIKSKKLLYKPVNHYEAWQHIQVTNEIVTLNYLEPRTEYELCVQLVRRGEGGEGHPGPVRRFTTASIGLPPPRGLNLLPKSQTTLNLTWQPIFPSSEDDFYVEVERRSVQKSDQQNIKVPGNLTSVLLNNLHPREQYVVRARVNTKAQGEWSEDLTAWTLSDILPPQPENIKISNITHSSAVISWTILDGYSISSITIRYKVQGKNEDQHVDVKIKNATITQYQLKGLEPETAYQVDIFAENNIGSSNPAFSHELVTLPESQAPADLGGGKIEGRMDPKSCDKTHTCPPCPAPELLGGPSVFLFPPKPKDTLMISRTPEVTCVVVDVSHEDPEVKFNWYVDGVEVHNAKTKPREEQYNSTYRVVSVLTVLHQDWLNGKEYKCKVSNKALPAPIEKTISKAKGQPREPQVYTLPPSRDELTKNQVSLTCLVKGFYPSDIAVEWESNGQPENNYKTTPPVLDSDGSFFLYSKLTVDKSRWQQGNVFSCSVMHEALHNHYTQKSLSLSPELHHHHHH

Structure (SMILES): CC[C@H](C)[C@H](NC(=O)[C@H](C)NC(=O)[C@H](CCCNC(=N)N)NC(=O)[C@H](CCC(=O)O)NC(=O)[C@H](CC(C)C)NC(=O)[C@H](CCCCN)NC(=O)[C@H](CCCCN)NC(=O)[C@H](CC(C)C)NC(=O)[C@H](Cc1c[nH]c2ccccc12)NC(=O)[C@H](CCC(N)=O)NC(=O)[C@@H](NC(=O)[C@H](CC(N)=O)NC(=O)[C@H](CC(N)=O)NC(=O)[C@H](CCC(N)=O)NC(=O)[C@H](CC(C)C)NC(=O)[C@H](C)NC(=O)[C@H](CCC(N)=O)NC(=O)[C@H](CCC(=O)O)NC(=O)[C@H](CC(C)C)NC(=O)[C@H](CCC(N)=O)NC(=O)[C@H](CCCCN)NC(=O)[C@@H](NC(=O)[C@H](CCC(N)=O)NC(=O)[C@H](CCC(N)=O)NC(=O)[C@@H](NC(C)=O)[C@@H](C)O)C(C)C)[C@@H](C)O)C(=O)N[C@@H](CCCCN)C(=O)N[C@H](C(=O)N[C@H](C(=O)N[C@@H](CC(C)C)C(N)=O)[C@@H](C)CC)[C@@H](C)O [CGEN-G2] (Ac-TQQVKQLEQALQNNTQWLKKLERAIKTIL-NH2)
- binding of peptide alone to immobilized Tie2: some non specific binding
